According to ChEMBL document CHEMBL1201862, “PubChem BioAssay data set” (2004):
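Briefly, cells in 96-well plates were exposed to five compound concentrations for 48 h, and endpoints were estimated by linear interpolation. GI50 is the concentration that inhibits growth by half.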 The source made the active and inactive calls. Cut-off read from the data, not from the text of the source: active = GI50 up to about 1.1 µM and inactive = higher.

What was measured:
Assay in all cases: NCI anticancer screen, dose series, 48 h
786-0 = tested on: 786-0
HCT-15 = tested on: HCT-15
HT-29 = tested on: HT-29
IGROV-1 = tested on: IGROV-1
M14 = tested on: M14
MDA-MB-435 = tested on: MDA-MB-435
MDA-N = tested on: MDA-N
MOLT-4 = tested on: MOLT-4
NCI-H23 = tested on: NCI-H23
NCI/ADR-RES = tested on: NCI/ADR-RES
OVCAR-3 = tested on: OVCAR-3
PC-3 = tested on: PC-3
SF-295 = tested on: SF-295
SF-539 = tested on: SF-539
SK-MEL-2 = tested on: SK-MEL-2
U-251 = tested on: U-251
UACC-257 = tested on: UACC-257
UO-31 = tested on: UO-31
SK-MEL-5 = tested on: SK-MEL-5
T47D = tested on: T47D

| Compound | GI50 (786-0) | GI50 (HCT-15) [µM] | GI50 (HT-29) | GI50 (IGROV-1) | GI50 (M14) | GI50 (MDA-MB-435) | GI50 (MDA-N) | GI50 (MOLT-4) | GI50 (NCI-H23) | GI50 (NCI/ADR-RES) | GI50 (OVCAR-3) | GI50 (PC-3) | GI50 (SF-295) | GI50 (SF-539) | GI50 (SK-MEL-2) | GI50 (U-251) | GI50 (UACC-257) | GI50 (UO-31) | GI50 (SK-MEL-5) | GI50 (T47D) |
| --- | --- | --- | --- | --- | --- | --- | --- | --- | --- | --- | --- | --- | --- | --- | --- | --- | --- | --- | --- | --- |
| COc1ccc(NCC(=O)Nn2c(C)nc3ccc(S(=O)(=O)Nc4ccc(OC)cc4)cc3c2=O)cc1 | > 100 µM (inactive) | > 100 | > 100 µM (inactive) | 69.7 µM (inactive) | > 100 µM (inactive) | > 100 µM (inactive) | > 100 µM (inactive) | > 100 µM (inactive) | > 100 µM (inactive) | > 100 µM (inactive) | > 100 µM (inactive) | > 100 µM (inactive) | > 100 µM (inactive) | > 100 µM (inactive) | > 100 µM (inactive) | > 100 µM (inactive) | > 100 µM (inactive) | > 100 µM (inactive) | – | – |
| O=S(=O)(/N=C1/S/C(=N\c2ccccc2)N(c2ccccc2)/C1=N/S(=O)(=O)c1ccccc1)c1ccccc1 | 19 µM (inactive) | 14.8 | 22.8 µM (inactive) | 20.5 µM (inactive) | 20.4 µM (inactive) | – | 16.6 µM (inactive) | 21.4 µM (inactive) | 16.4 µM (inactive) | – | – | > 10 µM (inactive) | – | – | 15.2 µM (inactive) | 22.3 µM (inactive) | 19.1 µM (inactive) | 15.8 µM (inactive) | 16.3 µM (inactive) | – |
| CCn1nc2c3c(ncn3C(C)(C)O2)c1=O | > 100 µM (inactive) | > 100 | > 100 µM (inactive) | > 100 µM (inactive) | > 100 µM (inactive) | > 100 µM (inactive) | > 100 µM (inactive) | > 100 µM (inactive) | > 100 µM (inactive) | > 100 µM (inactive) | – | > 100 µM (inactive) | > 100 µM (inactive) | – | > 100 µM (inactive) | > 100 µM (inactive) | > 100 µM (inactive) | > 100 µM (inactive) | > 100 µM (inactive) | > 100 µM (inactive) |
| CC(N)(/C=C/c1ccccc1)C(=O)O (stereo not given) | > 100 µM (inactive) | > 100 | > 100 µM (inactive) | > 100 µM (inactive) | > 100 µM (inactive) | > 100 µM (inactive) | > 100 µM (inactive) | > 100 µM (inactive) | > 100 µM (inactive) | > 100 µM (inactive) | > 100 µM (inactive) | > 100 µM (inactive) | > 100 µM (inactive) | > 100 µM (inactive) | > 100 µM (inactive) | > 100 µM (inactive) | > 100 µM (inactive) | > 100 µM (inactive) | > 100 µM (inactive) | – |
| Nc1ccccc1.O=P(O)(O)c1ccccc1 | > 100 µM (inactive) | > 100 | > 100 µM (inactive) | > 100 µM (inactive) | > 100 µM (inactive) | > 100 µM (inactive) | > 100 µM (inactive) | – | > 100 µM (inactive) | > 100 µM (inactive) | > 100 µM (inactive) | > 100 µM (inactive) | > 100 µM (inactive) | – | > 100 µM (inactive) | > 100 µM (inactive) | > 100 µM (inactive) | > 100 µM (inactive) | > 100 µM (inactive) | > 100 µM (inactive) |
| Cc1ccc(S(=O)(=O)NC(=O)N[C@@H](Cc2c[nH]cn2)C(=O)O)cc1 | > 100 µM (inactive) | > 100 | > 100 µM (inactive) | > 100 µM (inactive) | > 100 µM (inactive) | – | > 100 µM (inactive) | > 100 µM (inactive) | > 100 µM (inactive) | > 100 µM (inactive) | – | > 100 µM (inactive) | > 100 µM (inactive) | > 100 µM (inactive) | > 100 µM (inactive) | > 100 µM (inactive) | > 100 µM (inactive) | > 100 µM (inactive) | > 100 µM (inactive) | > 100 µM (inactive) |
| CSc1nc(NC(C)C)c2c(n1)Sc1nc3ccccc3n1C2O (stereo not given) | 4.11 µM (inactive) | 4.1 | 3.09 µM (inactive) | 8.04 µM (inactive) | 5.96 µM (inactive) | 1.74 µM (inactive) | 2.75 µM (inactive) | 2.84 µM (inactive) | 4.79 µM (inactive) | 2.56 µM (inactive) | 2.51 µM (inactive) | 1.83 µM (inactive) | 3.45 µM (inactive) | – | 7.73 µM (inactive) | 3.11 µM (inactive) | 40.9 µM (inactive) | 5.71 µM (inactive) | – | 4.2 µM (inactive) |
| Cc1ccccc1OC(C)C(=O)NN1C(=O)CC(=O)N(c2ccccc2)C1=S (stereo not given) | 82.4 µM (inactive) | 51.3 | 76 µM (inactive) | 80.4 µM (inactive) | 52 µM (inactive) | 73.1 µM (inactive) | – | 34 µM (inactive) | 88.1 µM (inactive) | 61 µM (inactive) | 53.2 µM (inactive) | 72.1 µM (inactive) | 46.3 µM (inactive) | > 100 µM (inactive) | 72.9 µM (inactive) | 62.7 µM (inactive) | 58.3 µM (inactive) | 35.8 µM (inactive) | 60.3 µM (inactive) | 35.3 µM (inactive) |
| COc1ccc(CN2C[C@H]3[C@@H](CC(=O)O[C@H]3C)CC2=O)cc1 | > 100 µM (inactive) | > 100 | > 100 µM (inactive) | > 100 µM (inactive) | > 100 µM (inactive) | > 100 µM (inactive) | > 100 µM (inactive) | > 100 µM (inactive) | > 100 µM (inactive) | > 100 µM (inactive) | > 100 µM (inactive) | > 100 µM (inactive) | > 100 µM (inactive) | – | > 100 µM (inactive) | > 100 µM (inactive) | > 100 µM (inactive) | > 100 µM (inactive) | > 100 µM (inactive) | – |
| CC1(C)C(=O)/C=C\C(=O)C(C)(C)C(=O)/C=C\C(=O)C(C)(C)C(=O)/C=C\C(=O)C(C)(C)C(=O)/C=C\C1=O | 24.1 µM (inactive) | 20.4 | 17.7 µM (inactive) | 34.4 µM (inactive) | 19.4 µM (inactive) | 31.2 µM (inactive) | 41.8 µM (inactive) | 3.53 µM (inactive) | 21.4 µM (inactive) | – | 23.8 µM (inactive) | > 100 µM (inactive) | 23.6 µM (inactive) | 28 µM (inactive) | 25.2 µM (inactive) | 27.7 µM (inactive) | 23.3 µM (inactive) | 34.8 µM (inactive) | 22.6 µM (inactive) | 30.8 µM (inactive) |
| Cc1ccc(S(=O)(=O)Nn2c(-c3ccccc3)c(C#N)c(-c3ccc([N+](=O)[O-])cc3)c(C#N)c2=O)cc1 | > 100 µM (inactive) | > 100 | > 100 µM (inactive) | 70.8 µM (inactive) | > 100 µM (inactive) | > 100 µM (inactive) | > 100 µM (inactive) | 45.6 µM (inactive) | – | > 100 µM (inactive) | – | > 100 µM (inactive) | > 100 µM (inactive) | > 100 µM (inactive) | > 100 µM (inactive) | > 100 µM (inactive) | > 100 µM (inactive) | – | 97.1 µM (inactive) | – |
